The target of one assay is T1, HSV-1 protease (Human herpesvirus 1, UniProt P10210).
T1 construct: 6xHis (N); made in house; host or cells: baculovirus expression system
Put plainly: Enzymatic assay for HSV-1 protease (assembly) inhibitor, fluorescence polarization. To be noted: read-out: HSV-1 Enzyme inhibition IC50. The assay is classed as biochemical. As for the experimental part:
An enzymatic assay method for an HSV-1 protease (assembly) inhibitor
The activity of an assembly protease was determined by fluorescence polarization. Biotin-gamma-amino butyrate-[…]-DTAF was used as a fluorescent substrate in accordance with an HSV-1 release and cleavage site. […] Changes in the sizes of fluorescent substrate molecules that increased with the use of avidin as a reaction terminator were assayed by fluorescence polarization.
The test compound was dissolved in DMF, and the resultant was diluted 5-fold with an assay buffer. 6.5 μl thereof was added to wells of a 96-well plate (a U-bottomed 96-well plate, Coster) that had previously been blocked with a blocking solution (10 mM Tris-HCl (pH 8.0), 150 mM sodium chloride, 0.05% Tween 20, 1 mg/ml of BSA). The enzyme was diluted to 21.3 μg/ml with an assay buffer (1M sodium citrate, 50 mM sodium phosphate (pH 7.4), 100 mM sodium chloride, 20% glycerol, 2 mM TCEP), and 48.5 μl of the resultant was added to each well. The plate was incubated at room temperature for 30 minutes, and 10 μl of 62.5 μg/ml substrate solution was then added to each well. The plate was incubated at room temperature for 60 minutes, and 50 μl of 2 mg/ml avidin phosphate buffer solution (50 mM sodium phosphate, 100 mM sodium chloride (pH 7.4)) was added to each well. The activity was determined in comparison with a compound without protease inhibitor using a microplate reader for fluorescence polarization.
HSV-1 protease was purified from a vaculovirus that had expressed a DNA construct encoding the reading frame for HSV-1UL26. This construct had further encoded 6 histidine residues at the amino terminus of the protease. These additional histidine residues impart affinity ligands purified by nickel-nitriloacetic acid-agarose (Qiagen). The purified protease was stored as a stock solution for a 20 mM HEPES buffer (pH 8.5, containing 20% v/v glycerin). This stock solution was diluted with an assay buffer and then used in the enzyme reaction.
In accordance with the cleavage specificity of the HSV-1 protease at the “release site” of the assembled protein, a specific substrate was synthesized (Diianni et al., J. Biol. Chem. 268, 2048 (1993)). This assembly protein-release site had the sequence • HTYLQA*SEKFKMW • , and the substrate used was biotin-gamma-amino butyrate-HTYLQA*SERFRIK-DTAF. This is a standard method for peptide synthesis, for example, as in the a method described in “The Practice of Peptide Synthesis” (Bodansky and Bodansky (1984)). The product was stored as a 2.5 mg/ml stock solution in DMF. The resultant was diluted to 62.5 μg/ml with a phosphate buffer (50 mM sodium phosphate, 100 mM sodium chloride, (pH 7.4)) immediately before its use.
An assay buffer (1M sodium citrate, 50 mM sodium phosphate (pH 7.4), 100 mM sodium chloride, 20% glycerol, 2 mM TCEP) was used to dilute a stock solution for the enzyme and that for the inhibitor.
(Polarisation of emitted light reports the rotation of a fluorescent probe.)

For another assay, the system named is HSV-1. Put plainly: Antiviral activity, HSV-1 in Vero cells, plaque method. The assay is classed as cell-based. To be noted: Human alphaherpesvirus 1, 20 hours, 90% inhibition of plaque formation. As for the experimental part: An Assay Method for Antiviral Activity These complementary assay methods examine the capacity of a compound to inhibit the generation of new viruses and to inhibit the toxicity of the compound against the host cell. Toxicity indirectly decreases the generation of viruses. Thus, it is important to simultaneously conduct both assays in order to directly compare the results. The Vero cells were sown on a 96-well plate and then cultured overnight. The culture supernatant was removed, and 100 μl of 2% FBS-DMEM containing 50,000 plaque-forming units (hereinafter abbreviated as “pfu”) of HSV-1 was added. A viral solution was removed and 200 μl of 2% FBS-DMEM comprising a test compound was added. In this case, a substance to which 2% FBS-DMEM not comprising any test compound had been added was determined as a control. These infected cells were incubated in the presence of 5% CO2 at 37° C. for 20 hours, and the medium was once allowed to freeze at −80° C. The culture solution was dissolved, and the amount of viruses in the culture solution was assayed by the plaque method. The concentration of the test compound when it inhibited 90% of plaque formation relative to the control was determined to be EC 90.

T1 sequence (P10210 1-247): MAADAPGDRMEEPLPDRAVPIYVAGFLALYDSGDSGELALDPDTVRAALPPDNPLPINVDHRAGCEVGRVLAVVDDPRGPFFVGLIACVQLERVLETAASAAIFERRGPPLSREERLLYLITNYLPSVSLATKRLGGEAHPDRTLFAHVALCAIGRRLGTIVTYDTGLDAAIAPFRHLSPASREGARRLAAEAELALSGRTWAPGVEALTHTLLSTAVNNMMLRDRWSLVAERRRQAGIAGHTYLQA

As a reminder, the IC50 is the midpoint of a concentration-inhibition curve. In general, EC90 refers to the point of the concentration-response curve where the effect stands at 90%. Low readings indicate greater potency, high ones weaker potency. Turning to `Cc1c(NC(=O)OC(C)(C)C)ccc2nc(NC3(C(=O)N(C)Cc4cccnc4)CC3)oc(=O)c12` [Compound No.118, {5-Methyl-2-[1-(methyl-pyridin-3-ylmethyl-carbamoyl)-cyclopropylamino]-4-oxo-4H-benzo[d][1,3]oxazin-6-yl}-carbamic acid tert-butyl ester], the IC50 on HSV-1 protease was determined as 2300 nM. Besides, the EC90 in the assay on HSV-1 is greater than 12500 nM.
Turning to `Cc1c(NC(=O)CCCNC(=O)c2cccs2)ccc2nc(NC(C)(C)C(=O)N(C)CCc3ccccn3)oc(=O)c12` [Compound No.212, Thiophene-2-carboxylic acid [3-(5-methyl-2-{1-methyl-1-[methyl-(2-pyridin-2-yl-ethyl)-carbamoyl]-ethylamino}-4-oxo-4H-benzo[d][1,3]oxazin-6-ylcarbamoyl)-propyl]-amide], the IC50 at HSV-1 protease came out at 300 nM. The EC90 with HSV-1 was greater than 12500 nM.
For `Cc1c(NC(=O)CCNC(=O)OC(C)(C)C)ccc2nc(NC(C)(C)C(=O)N(C)CCc3ccccn3)oc(=O)c12` [Compound No.201, [2-(5-methyl-2-{1-methyl-1-[methyl-(2-pyridin-2-yl-ethyl)-carbamoyl]-ethylamino}-4-oxo-4H-benzo[d][1,3]oxazin-6-ylcarbamoyl)-ethyl]-carbamic Acid Tert-Butyl Ester] the same measures were 1100 nM and greater than 12500 nM.
For `Cc1c(NC(=O)CCCNC(=O)OC(C)(C)C)ccc2nc(N[C@@H](C)C(=O)N(C)CCc3ccccn3)oc(=O)c12` [Compound No.207, [3-(5-Methyl-2-{1S-[methyl-(2-pyridin-2-yl-ethyl)-carbamoyl]-ethylamino}-4-oxo-4H-benzo[d][1,3]oxazin-6-ylcarbamoyl)-propyl]-carbamic acid tert-butyl ester] the same measures were 1100 nM and greater than 12500 nM.
For `Cc1c(NC(=O)CCCNC(=O)OC(C)(C)C)ccc2nc(NC(C)(C)C(=O)N(C)CCc3ccccn3)oc(=O)c12` [Compound No.203, [3-(5-Methyl-2-{1-methyl-1-[methyl-(2-pyridin-2-yl-ethyl)-carbamoyl]-ethylamino}-4-oxo-4H-benzo[d][1,3]oxazin-6-ylcarbamoyl)-propyl]-carbamic acid tert-butyl ester] the same measures were 400 nM and greater than 12500 nM.
Regarding `Cc1c(NC(=O)CCNC(=O)OC(C)(C)C)ccc2nc(N(C)CC(=O)N(C)CCc3ccccn3)oc(=O)c12` [Compound No.226, {2-[5-methyl-2-(methyl-{[methyl-(2-pyridin-2-yl-ethyl)-carbamoyl]-methyl}-amino)-4-oxo-4H-benzo[d][1,3]oxazin-6-ylcarbamoyl]-ethyl}-carbamic Acid Tert-Butyl Ester], the IC50 at HSV-1 protease was 1000 nM. The compound further gave an EC90 in the assay on HSV-1 greater than 20000 nM.
On to `Cc1c(NC(=O)CCNC(=O)c2cccs2)ccc2nc(NC(C)(C)C(=O)N(C)CCc3ccccn3)oc(=O)c12` [Compound No.209, thiophene-2-carboxylic acid [2-(5-methyl-2-{1-methyl-1-[methyl-(2-pyridin-2-yl-ethyl)-carbamoyl]-ethylamino}-4-oxo-4H-benzo[d][1,3]oxazin-6-ylcarbamoyl)-ethyl]-amide], for which, at HSV-1 protease, the IC50 came out at 900 nM. Further, the EC90 in the assay on HSV-1 is greater than 12500 nM.
`Cc1c(NC(=O)OC(C)(C)C)ccc2nc(NC(C)(C)C(=O)N(C)CCc3ccccc3)oc(=O)c12` [compound 229, {5-Methyl-2-[1-methyl-1-(methyl-phenethyl-carbamoyl)-ethylamino]-4-oxo-4H-benzo[d][1,3]oxazin-6-yl}-carbamic acid tert-butyl ester, reference compound]: the IC50 at HSV-1 protease is 12200 nM. This compound yielded an EC90 with HSV-1 of 6600 nM.
For `CCCCc1ccc(C(=O)NCCC(=O)Nc2ccc3nc(NC(C)(C)C(=O)N(C)CCc4ccccn4)oc(=O)c3c2C)cc1` [Compound No.211, 4-Butyl-N-[2-(5-methyl-2-{1-methyl-1-[methyl-(2-pyridin-2-yl-ethyl)-carbamoyl]-ethylamino}-4-oxo-4H-benzo[d][1,3]oxazin-6-ylcarbamoyl)-ethyl]-benzamide] the same measures were 700 nM and greater than 12500 nM.
For `Cc1c(NC(=O)CCNC(=O)OCc2ccccc2)ccc2nc(NC(C)(C)C(=O)N(C)CCc3ccccn3)oc(=O)c12` [Compound No.202, [2-(5-Methyl-2-{1-methyl-1-[methyl-(2-pyridin-2-yl-ethyl)-carbamoyl]-ethylamino}-4-oxo-4H-benzo [d][1,3]oxazin-6-ylcarbamoyl)-ethyl]-carbamic acid benzyl ester], the IC50 on HSV-1 protease is 500 nM. The same compound came in with an EC90 in the assay on HSV-1 greater than 12500 nM.
Consider `Cc1c(NC(=O)OC(C)(C)C)ccc2nc(NC3(C(=O)N(C)CCc4cccnc4)CCCC3)oc(=O)c12` [Compound No.126, (5-Methyl-2-{1-[methyl-(2-pyridin-3-yl-ethyl)-carbamoyl]-cyclopentylamino}-4-oxo-4H-benzo[d][1,3]oxazin-6-yl)-carbamic acid tert-butyl ester], for which the IC50 at HSV-1 protease was 400 nM. Besides, the EC90 with HSV-1 came out at 8600 nM.
For `Cc1c(NC(=O)CCCNC(=O)c2ccc(C(F)(F)F)cc2)ccc2nc(NC(C)(C)C(=O)N(C)CCc3ccccn3)oc(=O)c12` [Compound No.213, N-[3-(5-Methyl-2-{1-methyl-1-[methyl-(2-pyridin-2-yl-ethyl)-carbamoyl]-ethylamino}-4-oxo-4H-benzo [d][1,3]oxazin-6-ylcarbamoyl)-propyl]-4-trifluoromethyl-benzamide], the half-maximal inhibitory concentration (IC50) on HSV-1 protease was 300 nM. Also, the EC90 in the assay on HSV-1 is greater than 12500 nM.
For `Cc1c(NC(=O)CCNC(=O)OCc2ccccc2)ccc2nc(N[C@@H](C)C(=O)N(C)CCc3ccccn3)oc(=O)c12` [Compound No.206, [2-(5-Methyl-2-{1S-[methyl-(2-pyridin-2-yl-ethyl)-carbamoyl]-ethylamino}-4-oxo-4H-benzo[d][1,3]oxazin-6-ylcarbamoyl)-ethyl]-carbamic acid benzyl ester] the same measures were 1100 nM and greater than 12500 nM.
For `Cc1c(NC(=O)CCNC(=O)OC(C)(C)C)ccc2nc(N[C@H](C)C(=O)N(C)CCc3ccccn3)oc(=O)c12` [Compound No.227, [2-(5-Methyl-2-{1R-[methyl-(2-pyridin-2-yl-ethyl)-carbamoyl]-ethylamino}-4-oxo-4H-benzo[d][1,3]oxazin-6-ylcarbamoyl)-ethyl]-carbamic acid tert-butyl ester] the same measures were 2400 nM and greater than 20000 nM.
For `Cc1c(NC(=O)CCNC(=O)c2ccc(C(F)(F)F)cc2)ccc2nc(NC(C)(C)C(=O)N(C)CCc3ccccn3)oc(=O)c12` [Compound No.210, N-[2-(5-Methyl-2-{1-methyl-1-[methyl-(2-pyridin-2-yl-ethyl)-carbamoyl]-ethylamino}-4-oxo-4H-benzo[d][1,3]oxazin-6-ylcarbamoyl)-ethyl]-4-trifluoromethyl-benzamide] the same measures were 700 nM and greater than 12500 nM.
Turning to `Cc1c(NC(=O)OC(C)(C)C)ccc2nc(N[C@H](C)C(=O)N(C)CCc3ccccn3)oc(=O)c12` [Compound No.132, (5-Methyl-2-{1R-[methyl-(2-pyridin-2-yl-ethyl)-carbamoyl]-ethylamino}-4-oxo-4H-benzo[d][1,3]oxazin-6-yl)-carbamic acid tert-butyl ester], the IC50 on HSV-1 protease came to 800 nM. In the assay on HSV-1, this compound came in with an EC90 of 15800 nM.

The values are drawn from patent US20040116420A1 (priority 2001, published 2004).
